Experimental data: patent publication EP4043444A1, “SUBSTITUTED ISOXAZOLINE DERIVATIVES” (priority 2021, dated 2022)
Read-outs that look alike come from different tables or passages of the source.

Legend:
Type in all cases: in vivo
[1] = tested on: Tobacco Budworm (Heliothis virescens); test: Tobacco Budworm control, 96-well microtiter plates with insect diet and eggs; conditions: for mortality at 2500 ppm: Heliothis virescens, 120 h, read-out: mortality (Egg and larval mortality)
Experimental: For evaluating control of Tobacco Budworm, the test unit consisted of 96-well-microtiter plates containing an insect diet and 15-25 H. virescens eggs. The compounds were formulated using a solution containing 75% v/v water and 25% v/v DMSO. Different concentrations of formulated compounds were sprayed onto the insect diet at 10µl, using a custom-built micro atomizer, at two replications. After application, microtiter plates were incubated at about 28 + 1°C and about 80 + 5 % relative humidity for 5 days. Egg and larval mortality was then visually assessed.

[2] = tested on: Green Peach Aphid (Myzus persicae) (mixed life stages); test: Green Peach Aphid control through systemic means, artificial diet under artificial membrane; conditions: for mortality at 2500 ppm: Myzus persicae, 72 h, read-out: mortality (Aphid mortality)
Source text: For evaluating control of Green Peach Aphid through systemic means the test unit consisted of 96-well-microtiter plates containing liquid artificial diet under an artificial membrane. The compounds were formulated using a solution containing 75% v/v water and 25% v/v DMSO. Different concentrations of formulated compounds were pipetted into the aphid diet, using a custom-built pipette, at two replications. After application, 5 - 8 adult aphids were placed on the artificial membrane inside the microtiter plate wells. The aphids were then allowed to suck on the treated aphid diet and incubated at about 23 + 1°C and about 50 + 5 % relative humidity for 3 days. Aphid mortality and fecundity was then visually assessed.

[3] = tested on: Boll weevil (Anthonomus grandis); test: Boll weevil control, 96-well microtiter plates with insect diet and eggs; conditions: for mortality at 2500 ppm: Anthonomus grandis, 120 h, read-out: mortality (Egg and larval mortality)
Experimental: For evaluating control of boll weevil, the test unit consisted of 96-well-microtiter plates containing an insect diet and 5-10 A. grandis eggs.
The compounds were formulated using a solution containing 75% v/v water and 25% v/v DMSO. Different concentrations of formulated compounds were sprayed onto the insect diet at 5µl, using a custom-built micro atomizer, at two replications.
After application, microtiter plates were incubated at about 25 + 1°C and about 75 + 5 % relative humidity for 5 days. Egg and larval mortality were then visually assessed.

[4] = tested on: Yellow Fever Mosquito (Aedes aegypti); test: whole plant or invertebrate; conditions: 48 h, 2 days, in comparison with untreated controls, read-out: mortality (Larval mortality)
Experimental: For evaluating control of Yellow Fever Mosquito the test unit consisted of 96-well-microtiter plates containing 200µl of tap water per well and 5-15 freshly hatched A. aegypti larvae. The active compounds were formulated using a solution containing 75% (v/v) water and 25% (v/v) DMSO. Different concentrations of formulated compounds or mixtures were sprayed onto the insect diet at 2.5µl, using a custom-built micro atomizer, at two replications.
After application, microtiter plates were incubated at 28 + 1°C, 80 + 5 % RH for 2 days. Larval mortality was then visually assessed.

[5] = 2500ppm, sprayed onto insect diet, 5 days, in comparison with untreated controls

Compound | mortality (Egg and larval mortality) [1, 5] | mortality (Aphid mortality) ([2]; 2500 ppm, pipetted into aphid diet, 3 days, in comparison with untreated controls) | mortality (Egg and larval mortality) [3, 5] | mortality at 2500 ppm [4] | mortality at 2500 ppm [1, 5] | mortality at 2500 ppm [2] | mortality at 2500 ppm [3] | mortality at 2500 ppm [1]
2-chloro-5-[[5-(3,5-dichloro-4-fluoro-phenyl)-5-(trifluoromethyl)-4H-isoxazol-3-yl]amino]-N-[1-(trifluoromethylsulfonyl)azetidin-3-yl]benzamide [I-99] | at least 75% | at least 75% | at least 75% |  |  |  |  | 
O=C(Nc1ccc(F)cc1F)c1cc(NC2=NOC(c3cc(Cl)cc(Cl)c3)(C(F)(F)F)C2)ccc1Cl (stereo not drawn) [I-2] |  |  |  | ≥ 75% | ≥ 75% | ≥ 75% | ≥ 75% | 
N#CC1(NC(=O)c2cc(NC3=NOC(c4cc(Cl)cc(Cl)c4)(C(F)(F)F)C3)ccc2Cl)CC1 (stereo not drawn) [I-3] |  |  |  | ≥ 75% | ≥ 75% | ≥ 75% | ≥ 75% | 
O=C(Nc1ccc(F)c(NC(=O)C(F)F)c1F)c1cc(NC2=NOC(c3cc(Cl)cc(Cl)c3)(C(F)(F)F)C2)ccc1Cl (stereo not drawn) [I-5, 2-chloro-5-[[5-(3,5-dichlorophenyl)-5-(trifluoromethyl)-4H-isoxazol-3-yl]amino]-N-[3-[(2,2-difluoroacetyl)amino]-2,4-difluoro-phenyl]benzamide] |  |  |  | ≥ 75% | ≥ 75% | ≥ 75% | ≥ 75% | 
CC(=O)Nc1c(F)ccc(NC(=O)c2cc(NC3=NOC(c4cc(Cl)cc(Cl)c4)(C(F)(F)F)C3)ccc2Cl)c1F (stereo not drawn) [I-6] |  |  |  | ≥ 75% | ≥ 75% | ≥ 75% | ≥ 75% | 
O=C(Nc1ccc(F)c(NC(=O)C(F)(F)Cl)c1F)c1cc(NC2=NOC(c3cc(Cl)cc(Cl)c3)(C(F)(F)F)C2)ccc1Cl (stereo not drawn) [I-7] |  |  |  | ≥ 75% | ≥ 75% | ≥ 75% | ≥ 75% | 
O=C(Nc1ccc(F)c(NC(=O)C(F)(F)F)c1F)c1cc(NC2=NOC(c3cc(Cl)cc(Cl)c3)(C(F)(F)F)C2)ccc1Cl (stereo not drawn) [I-8] |  |  |  | ≥ 75% | ≥ 75% | ≥ 75% | ≥ 75% | 
O=C(CC(F)(F)F)Nc1c(F)ccc(NC(=O)c2cc(NC3=NOC(c4cc(Cl)cc(Cl)c4)(C(F)(F)F)C3)ccc2Cl)c1F (stereo not drawn) [I-9] |  |  |  | ≥ 75% | ≥ 75% | ≥ 75% | ≥ 75% | 
O=C(CC1CC1)Nc1c(F)ccc(NC(=O)c2cc(NC3=NOC(c4cc(Cl)cc(Cl)c4)(C(F)(F)F)C3)ccc2Cl)c1F (stereo not drawn) [I-10] |  |  |  | ≥ 75% | ≥ 75% |  | ≥ 75% | 
N#CC1(NC(=O)c2c(F)ccc(NC3=NOC(c4cc(Cl)cc(Cl)c4)(C(F)(F)F)C3)c2F)CC1 (stereo not drawn) [I-11, N-(1-cyanocyclopropyl)-3-[[5-(3,5-dichlorophenyl)-5-(trifluoromethyl)-4H-isoxazol-3-yl]amino]-2,6-difluoro-benzamide] |  |  |  | ≥ 75% | ≥ 75% |  |  | 
O=C(Nc1ccc(F)cc1F)c1cccc(NC2=NOC(c3cc(Cl)cc(Cl)c3)(C(F)(F)F)C2)c1F (stereo not drawn) [I-13, 3-[[5-(3,5-dichlorophenyl)-5-(trifluoromethyl)-4H-isoxazol-3-yl]amino]-N-(2,4-difluorophenyl)-2-fluoro-benzamide] |  |  |  | ≥ 75% | ≥ 75% | ≥ 75% | ≥ 75% | 
O=C(Nc1ccc(F)cc1F)c1cc(NC2=NOC(c3cc(Cl)c(F)c(Cl)c3)(C(F)(F)F)C2)ccc1Cl (stereo not drawn) [I-14] |  |  |  | ≥ 75% | ≥ 75% | ≥ 75% | ≥ 75% | 
O=C(Nc1ccc(F)cc1F)c1cc(NC2=NOC(c3ccc(F)c(C(F)(F)F)c3)(C(F)(F)F)C2)ccc1Cl (stereo not drawn) [I-16] |  |  |  | ≥ 75% | ≥ 75% | ≥ 75% | ≥ 75% | 
N#CC1(NC(=O)c2cc(N(CC3CC3)C3=NOC(c4cc(Cl)cc(Cl)c4)(C(F)(F)F)C3)ccc2Cl)CC1 (stereo not drawn) [I-25, 2-chloro-N-(1-cyanocyclopropyl)-5-[cyclopropylmethyl-[5-(3,5-dichlorophenyl)-5-(trifluoromethyl)-4H-isoxazol-3-yl]amino]benzamide] |  |  |  | ≥ 75% | ≥ 75% |  | ≥ 75% | 
CCOC(=O)N(C1=NOC(c2cc(Cl)cc(Cl)c2)(C(F)(F)F)C1)c1ccc(Cl)c(C(=O)NC2(C#N)CC2)c1 (stereo not drawn) [I-28, ethyl N-[4-chloro-3-[(1-cyanocyclopropyl)carbamoyl]phenyl]-N-[5-(3,5-dichlorophenyl)-5-(trifluoromethyl)-4H-isoxazol-3-yl]carbamate] |  |  |  | ≥ 75% | ≥ 75% |  | ≥ 75% | 
O=C(NCc1ccccn1)c1ccc(NC2=NOC(c3cc(Cl)cc(Cl)c3)(C(F)(F)F)C2)cc1Cl (stereo not drawn) [I-70] |  |  |  | ≥ 75% | ≥ 75% |  | ≥ 75% | 
CCN1OC[C@@H](NC(=O)c2ccc(NC3=NOC(c4cc(Cl)cc(Cl)c4)(C(F)(F)F)C3)cc2Cl)C1=O (stereo partly drawn) [I-71] |  |  |  | ≥ 75% |  |  |  | 
CC(C)(C#N)NC(=O)c1cc(NC2=NOC(c3cc(Cl)c(F)c(Cl)c3)(C(F)(F)F)C2)ccc1Cl (stereo not drawn) [I-75, 2-chloro-N-(1-cyano-1-methyl-ethyl)-5-[[5-(3,5-dichloro-4-fluoro-phenyl)-5-(trifluoromethyl)-4H-isoxazol-3-yl]amino]benzamide] |  |  |  |  | ≥ 75% |  | ≥ 75% | 
O=C(NC1C[S+]([O-])C1)c1cc(NC2=NOC(c3cc(Cl)c(F)c(Cl)c3)(C(F)(F)F)C2)ccc1Cl (stereo not drawn) [I-96, 2-chloro-5-[[5-(3,5-dichloro-4-fluoro-phenyl)-5-(trifluoromethyl)-4H-isoxazol-3-yl]amino]-N-(1-oxothietan-3-yl)benzamide] |  |  |  | ≥ 75% |  | ≥ 75% | ≥ 75% | ≥ 75%
O=C(NC1CN(S(=O)(=O)C(F)F)C1)c1cc(NC2=NOC(c3cc(Cl)c(F)c(Cl)c3)(C(F)(F)F)C2)ccc1Cl (stereo not drawn) [I-98, 2-chloro-5-[[5-(3,5-dichloro-4-fluoro-phenyl)-5-(trifluoromethyl)-4H-isoxazol-3-yl]amino]-N-[1-(difluoromethylsulfonyl)azetidin-3-yl]benzamide] |  |  |  | ≥ 75% |  | ≥ 75% | ≥ 75% | ≥ 75%
CCOC(=O)N(C1=NOC(c2cc(Cl)cc(Cl)c2)(C(F)(F)F)C1)c1ccc(Cl)c(C(=O)N(C(=O)OCC)C2(C#N)CC2)c1 (stereo not drawn) [I-142, ethyl N-[4-chloro-3-[(1-cyanocyclopropyl)-ethoxycarbonyl-carbamoyl]-phenyl]-N-[5-(3,5-dichlorophenyl)-5-(trifluoromethyl)-4H-isoxazol-3-yl]carbamate] |  |  |  | ≥ 75% | ≥ 75% |  | ≥ 75% | 
COc1ccc(NC2=NOC(c3cc(Cl)cc(Cl)c3)(C(F)(F)F)C2)cc1C(=O)NC1(C#N)CC1 (stereo not drawn) [I-147] |  |  |  | ≥ 75% |  |  | ≥ 75% | 
N#CC1(NC(=O)c2cc(NC3=NOC(c4cc(Cl)cc(Cl)c4)(C(F)(F)F)C3)ccc2OC(F)F)CC1 (stereo not drawn) [I-148] |  |  |  | ≥ 75% | ≥ 75% |  | ≥ 75% | 
N#CC1(NC(=O)c2cc(NC3=NOC(c4cc(Cl)cc(Cl)c4)(C(F)(F)F)C3)ccc2C(F)(F)F)CC1 (stereo not drawn) [I-149] |  |  |  | ≥ 75% | ≥ 75% |  | ≥ 75% | 
O=C(Nc1ccc(F)cc1F)c1cc(NC2=NOC(c3cc(Cl)cc(Cl)c3)(C(F)(F)F)C2)ccc1OC(F)(F)F (stereo not drawn) [I-159] |  |  |  | ≥ 75% | ≥ 75% |  | ≥ 75% | 
COc1ccc(NC2=NOC(c3cc(Cl)cc(Cl)c3)(C(F)(F)F)C2)cc1C(=O)NC1CC1 (stereo not drawn) [I-170] |  |  |  | ≥ 75% | ≥ 75% |  | ≥ 75% | 
N#Cc1c(NC2=NOC(c3cc(Cl)cc(Cl)c3)(C(F)(F)F)C2)cccc1C(=O)NC1CC1 (stereo not drawn) [I-173] |  |  |  | ≥ 75% | ≥ 75% |  |  | 
Cc1ccc(NC2=NOC(c3cc(Cl)cc(Cl)c3)(C(F)(F)F)C2)cc1C(=O)NCC(F)(F)F (stereo not drawn) [I-176] |  |  |  | ≥ 75% | ≥ 75% |  | ≥ 75% | 
